Patent US20250270213A1, “PI3Ka INHIBITORS” (Synnovation Therapeutics, Inc., priority 2022, published 2025)

The molecules below were run on T47D (PIK3CA H1047R) cells (assay: pS473 AKT assay with 2.5% FBS, T47D cells). Details: Homo sapiens, pSer473 AKT, DMEM with 2.5% FBS, 2 h treatment, read-out: T47D_IC50.
Assay type: cell-based
Procedure, shortened: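 In-cell chemiluminescent ELISA of AKT Ser473 phosphorylation, using anti-pSer473 primary and HRP secondary antibodies on fixed cells. T47D (PIK3CA H1047R) cells had 2 h of compound treatment in DMEM containing 2.5% FBS; IC50 derived from dose-response.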

Row | Compound | IC50
1 | CCn1c(=O)c2cc(C)cc(C(C)Nc3ccc(Cl)nc3-c3ncn(C)n3)c2c2cnn(C3CCN(C(C)=O)C3)c21 (stereo not drawn) [Compound 149, 3-(1-acetylpyrrolidin-3-yl)-9-(1-((6-chloro-2-(1-methyl-1H-1,2,4-triazol-3-yl)pyridin-3-yl)amino)ethyl)-4-ethyl-7-methyl-3,4-dihydro-5H-pyrazolo[3,4-c]isoquinolin-5-one] | < 1000 nM
2 | CCn1c(=O)c2cc(C)cc(C(C)Nc3ccc(Cl)nc3-c3ncn(C)n3)c2c2cnn(C3CCN(C(=O)OC)C3)c21 (stereo not drawn) [Compound 150, methyl 3-(9-(1-((6-chloro-2-(1-methyl-1H-1,2,4-triazol-3-yl)pyridin-3-yl)amino)ethyl)-4-ethyl-7-methyl-5-oxo-4,5-dihydro-3H-pyrazolo[3,4-c]isoquinolin-3-yl)pyrrolidine-1-carboxylate] | < 1000 nM
3 | Cc1cc(C(C)Nc2ccc(Cl)nc2-c2ccncc2F)c2c(c1)c(=O)n(C)c1c2cnn1C1CCN(C(=O)N(C)C)C1 (stereo not drawn) [Compound 151, 3-(9-(1-((6-chloro-3′-fluoro-[2,4′-bipyridin]-3-yl)amino)ethyl)-4,7-dimethyl-5-oxo-4,5-dihydro-3H-pyrazolo[3,4-c]isoquinolin-3-yl)-N,N-dimethylpyrrolidine-1-carboxamide] | < 1000 nM
4 | [2H]C([2H])([2H])n1c(=O)c2cc(C)cc(C(C)Nc3ccc(Cl)nc3-c3cnn(C)c3)c2c2cnn(C3CCN(CCC#N)C3)c21 (stereo not drawn) [Compound 152, 3-(3-(9-(1-((6-Chloro-2-(1-methyl-1H-pyrazol-4-yl)pyridin-3-yl)amino)ethyl)-7-methyl-4-(methyl-d3)-5-oxo-4,5-dihydro-3H-pyrazolo[3,4-c]isoquinolin-3-yl)pyrrolidin-1-yl)propanenitrile] | < 1000 nM
5 | [2H]C([2H])([2H])n1c(=O)c2cc(C)cc(C(C)Nc3ccc(Cl)nc3-c3nnn(C)n3)c2c2cnn(C3CCN(CCC#N)C3)c21 (stereo not drawn) [Compound 153, 3-(3-(9-(1-((6-chloro-2-(2-methyl-2H-tetrazol-5-yl)pyridin-3-yl)amino)ethyl)-7-methyl-4-(methyl-d3)-5-oxo-4,5-dihydro-3H-pyrazolo[3,4-c]isoquinolin-3-yl)pyrrolidin-1-yl)propanenitrile] | < 1000 nM
6 | [2H]C([2H])([2H])n1c(=O)c2cc(C)cc(C(C)Nc3ccc(Cl)nc3-c3cnn(C)c3)c2c2cnn(C3CCN(C(=O)CO)C3)c21 (stereo not drawn) [Compound 154, 9-(1-((6-Chloro-2-(1-methyl-1H-pyrazol-4-yl)pyridin-3-yl)amino)ethyl)-3-(1-(2-hydroxyacetyl)pyrrolidin-3-yl)-7-methyl-4-(methyl-d3)-3,4-dihydro-5H-pyrazolo[3,4-c]isoquinolin-5-one] | < 1000 nM
7 | [2H]C([2H])([2H])n1c(=O)c2cc(C)cc(C(C)Nc3ccc(Cl)nc3-c3cnn(C)c3)c2c2cnn(C3CCN(C(=O)CN(C)C)C3)c21 (stereo not drawn) [Compound 155, 9-(1-((6-chloro-2-(1-methyl-1H-pyrazol-4-yl)pyridin-3-yl)amino)ethyl)-3-(1-(dimethylglycyl)pyrrolidin-3-yl)-7-methyl-4-(methyl-d3)-3,4-dihydro-5H-pyrazolo[3,4-c]isoquinolin-5-one] | < 1000 nM
8 | [2H]C([2H])([2H])n1c(=O)c2cc(C)cc(C(C)Nc3ccc(Cl)nc3-c3cnn(C)c3)c2c2cnn(C3CCN(C(=O)c4ccnn4C)C3)c21 (stereo not drawn) [Compound 156, 9-(1-((6-chloro-2-(1-methyl-1H-pyrazol-4-yl)pyridin-3-yl)amino)ethyl)-7-methyl-4-(methyl-d3)-3-(1-(1-methyl-1H-pyrazole-5-carbonyl)pyrrolidin-3-yl)-3,4-dihydro-5H-pyrazolo[3,4-c]isoquinolin-5-one] | < 1000 nM
9 | [2H]C([2H])([2H])n1c(=O)c2cc(C)cc(C(C)Nc3ccc(Cl)nc3-c3cnn(C)c3)c2c2cnn(C3CCN(C(=O)C4(C#N)CC4)C3)c21 (stereo not drawn) [Compound 157, 1-(3-(9-(1-((6-chloro-2-(1-methyl-1H-pyrazol-4-yl)pyridin-3-yl)amino)ethyl)-7-methyl-4-(methyl-d3)-5-oxo-4,5-dihydro-3H-pyrazolo[3,4-c]isoquinolin-3-yl)pyrrolidine-1-carbonyl)cyclopropane-1-carbonitrile] | < 1000 nM
